In patent publication US20230312481A1, “SUBSTITUTED (PHTHALAZIN-1-YLMETHYL)UREAS, SUBSTITUTED N-(PHTHALAZIN-1-YLMETHYL)AMIDES, AND ANALOGUES THEREOF” (priority 2020, published 2023):
pEC50: −log10 of the molar value.

What follows are compounds tested on HBV rcDNA in HepDE19 cells (assay: HepDE19 assay with bDNA quantitation of HBV rcDNA). Details: HepDE19 cells, 7 day incubation, rcDNA measured by Quantigene 2.0 bDNA assay; top concentration 25 µM; read-out: DE-19bDNA EC50.
Type: cell-based, hepatitis B virus
Method in brief: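 HepDE19 cells were induced by tetracycline withdrawal, then treated with compounds (0.5% DMSO final) for 7 days at 37 °C. HBV rcDNA measured by bDNA assay with HBV-specific probes. Viability assessed on replicate plates (5,000 cells/well, 4 days) by CellTiter-Glo ATP content.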
Work on `CC(c1n[nH]c(=O)c2cc(F)c(F)cc12)N(C)C(=O)c1cc2c(C(F)F)cc(F)cc2[nH]1` (single isomer, unassigned) [Compound 96, N-(1-(6,7-difluoro-4-oxo-3,4-dihydrophthalazin-1-yl)ethyl)-4-(difluoromethyl)-6-fluoro-N-methyl-1H-indole-2-carboxamide] yielded a pEC50 of 5.60.
`CC(c1n[nH]c(=O)c2cc(F)c(F)cc12)N(C)C(=O)c1ccc2[nH]ncc2c1` (single isomer, unassigned) [Compound 111, N-(1-(6,7-difluoro-4-oxo-3,4-dihydrophthalazin-1-yl)ethyl)-N-methyl-1H-indazole-5-carboxamide] showed a pEC50 of 5.05.
`CC(c1n[nH]c(=O)c2cc(F)c(F)cc12)N(C)C(=O)c1cc(F)c(Cl)c(F)c1` (single isomer, unassigned) [Compound 94, 4-chloro-N-(1-(6,7-difluoro-4-oxo-3,4-dihydrophthalazin-1-yl)ethyl)-3,5-difluoro-N-methylbenzamide] showed a pEC50 of 4.88.
In the case of `CC(c1n[nH]c(=O)c2cc(F)c(F)cc12)N(C)C(=O)c1ccc2ncoc2c1` (single isomer, unassigned) [Compound 91, N-(1-(6,7-difluoro-4-oxo-3,4-dihydrophthalazin-1-yl)ethyl)-N-methylbenzo[d]oxazole-6-carboxamide], the pEC50 was 5.41.
For `CC(c1n[nH]c(=O)c2cc(F)c(F)cc12)N(C)C(=O)c1ccc2scnc2c1` (single isomer, unassigned) [Compound 84, N-(1-(6,7-difluoro-4-oxo-3,4-dihydrophthalazin-1-yl)ethyl)-N-methylbenzo[d]thiazole-5-carboxamide], the pEC50 was < 4.60.
For `CC(C)CN(C(=O)Nc1ccc(F)cc1)C(C)c1n[nH]c(=O)c2cc(F)ccc12` (single isomer, unassigned) [Compound 21, 1-(1-(6-fluoro-4-oxo-3,4-dihydrophthalazin-1-yl)ethyl)-3-(4-fluorophenyl)-1-isobutylurea], the pEC50 was 5.62.

Same assay, conditions: Hepatitis B virus, HepDE19, 168 h, HepDE19 cells, 7 day incubation, rcDNA measured by Quantigene 2.0 bDNA assay; top concentration 25 µM; read-out: DE-19bDNA EC50
`CC(c1n[nH]c(=O)c2cc(Cl)ccc12)N(C)C(=O)Nc1ccc(F)c(Cl)c1` (racemic) [Compound 12, 3-(3-chloro-4-fluorophenyl)-1-(1-(6-chloro-4-oxo-3,4-dihydrophthalazin-1-yl)ethyl)-1-methylurea] was tested, and the pEC50 was 6.59.
With `CC(c1n[nH]c(=O)c2cc(F)c(F)cc12)N(C)C(=O)c1ccc(F)c(F)c1` (racemic) [Compound 70, N-(1-(6,7-difluoro-4-oxo-3,4-dihydrophthalazin-1-yl)ethyl)-3,4-difluoro-N-methylbenzamide] the pEC50 was 6.05.
`CC(c1n[nH]c(=O)c2c(F)cccc12)N(C)C(=O)Nc1ccc(F)c(Cl)c1` (stereo not shown) [Compound 44, 3-(3-chloro-4-fluorophenyl)-1-(1-(5-fluoro-4-oxo-3,4-dihydrophthalazin-1-yl)ethyl)-1-methylurea] was tested, and the pEC50 was 6.54.
For `CC(c1n[nH]c(=O)c2cc(F)ccc12)N(C)C(=O)Nc1ccc(F)cc1` (racemic) [Compound 18, 1-(1-(6-fluoro-4-oxo-3,4-dihydrophthalazin-1-yl)ethyl)-3-(4-fluorophenyl)-1-methylurea], the pEC50 was 6.30.

Same assay, conditions: Hepatitis B virus, HepDE19, 168 h, read-out: DE-19bDNA EC50
In the case of `CC(c1n[nH]c(=O)c2cc(F)c(F)cc12)N(C)C(=O)c1cc2cc(F)ccc2[nH]1` (racemic) [Compound 51, N-(1-(6,7-difluoro-4-oxo-3,4-dihydrophthalazin-1-yl)ethyl)-5-fluoro-N-methyl-1H-indole-2-carboxamide], the pEC50 was 7.41.
`C[C@H](c1n[nH]c(=O)c2cc(F)c(F)cc12)N(C)C(=O)c1cc2sc(Cl)cc2[nH]1` [Compound 79, (R)-2-chloro-N-(1-(6,7-difluoro-4-oxo-3,4-dihydrophthalazin-1-yl)ethyl)-N-methyl-4H-thieno[3,2-b]pyrrole-5-carboxamide] showed a pEC50 of 7.52.
`CC(c1n[nH]c(=O)c2cc(F)c(F)cc12)N(C)C(=O)c1ccccc1` (racemic) [Compound 74, N-(1-(6,7-difluoro-4-oxo-3,4-dihydrophthalazin-1-yl)ethyl)-N-methylbenzamide] gave a pEC50 of 4.75.
